Experimental data published in the NIST ThermoML archive (doi:10.1021/je100652b).
± gives the expanded uncertainty stated by the source.

Settings: 101.33 kPa, Liquid; for speed of sound: Sing-around technique in a fixed-path interferometer

Compound | mass density (298.15 K) | speed of sound (298.15 K) | mass density (308.15 K) | speed of sound (308.15 K)
Cc1ccc(C)cc1 [1,4-dimethylbenzene] | 856.7 ± 0.39 kg/m3 | 1314 ± 2 m/s | 847.88 ± 0.4 kg/m3 | 1272 ± 2 m/s
CCCCO [butan-1-ol] | 805.91 ± 0.56 kg/m3 | 1244 ± 2 m/s | 798.21 ± 0.57 kg/m3 | 1212 ± 2 m/s
C1CCCCC1 [cyclohexane] | 773.86 ± 0.51 kg/m3 | 1254 ± 2 m/s | 764.46 ± 0.53 kg/m3 | 1212 ± 2 m/s
CCCCCO [pentan-1-ol] | 810.76 ± 0.56 kg/m3 | 1274 ± 2 m/s | 803.41 ± 0.57 kg/m3 | 1240 ± 2 m/s
Cc1ccccc1 [toluene] | 862.21 ± 0.38 kg/m3 | 1304 ± 2 m/s | 852.86 ± 0.39 kg/m3 | 1262 ± 2 m/s

Second part, the compound after the results:

mass density (298.15 K) | speed of sound (298.15 K) | mass density (308.15 K) | speed of sound (308.15 K) | Compound
873.58 ± 0.36 kg/m3 | 1300 ± 2 m/s | 862.96 ± 0.38 kg/m3 | 1260 ± 2 m/s | c1ccccc1 [benzene]
862.63 ± 0.38 kg/m3 | 1319 ± 2 m/s | 853.89 ± 0.39 kg/m3 | 1276 ± 2 m/s | CCc1ccccc1 [ethylbenzene]
818.91 ± 0.55 kg/m3 | 1330 ± 2 m/s | 811.94 ± 0.55 kg/m3 | 1292 ± 2 m/s | CCCCCCCO [heptan-1-ol]
937.6 ± 0.28 kg/m3 | 1182 ± 2 m/s | 925.7 ± 0.3 kg/m3 | 1152 ± 2 m/s | C=C(C)C(=O)OC [methyl methacrylate]
